Source: patent publication US6831039B1, “3-(heterocyclyl)-substituted benzolpyrazols” (BASF Aktiengesellschaft, priority 1998, dated 2004)

Experiments:
Assay in all cases: Greenhouse post-emergence herbicidal test
barnyard grass = type: in vivo, Echinochloa crus galli; details: 0.5 or 0.25 kg/ha
Excerpt: (§1) The seeds of the test plants were sown separately for each species. For the post-emergence treatment, the test plants were first grown to a height of 3 to 15 cm, depending on the plant habit, and only then treated with the active compounds which had been suspended or emulsified in water. The test plants were, for this purpose, either sown directly and grown in the same containers, or they were first grown separately as seedlings and transplanted into the test containers a few days prior to treatment. The application rate for the post-emergence treatment was 0.5, 0.25, 0.125 or 0.0625 kg of a.s. (active substance)/ha. Depending on the species, the plants were kept at 10-25° C. or 20-35° C. The test period extended over 2 to 4 weeks. During this time, the plants were tended, and their response to the individual treatments was evaluated. The evaluation was carried out using a scale from 0 to 100. 100 means no emergence of the plants, or complete destruction of at least the aerial parts and 0 means no damage, or normal course of growth. The plants used in the greenhouse experiments were of the following species: [table]

lamb's-quarters = type: in vivo, Chenopodium album; details: 0.5 or 0.25 kg/ha
Excerpt: as §1

black nightshade = type: in vivo, Solanum nigrum; details: 0.5 or 0.25 kg/ha
Excerpt: as §1

green foxtail = type: in vivo, Setaria viridis
Excerpt: as §1

pigweed = type: in vivo, Amaranthus retroflexus; details: 0.25 or 0.125 kg/ha
Excerpt: as §1

lady's-thumb = type: in vivo, Polygonum persicaria; details: 0.25 or 0.125 kg/ha
Excerpt: as §1

wild oat = type: in vivo, Avena fatua; details: 0.25 or 0.125 kg/ha
Excerpt: as §1

white mustard = type: in vivo, Sinapis alba; details: 0.25 or 0.125 kg/ha
Excerpt: as §1

Cc1nn(C(C)(C)C)c(O)c1C(=O)c1ccc(S(C)(=O)=O)c(C2=NOCC2)c1C [Compound 2.8]
very good: post-emergence control of harmful plants (barnyard grass) | post-emergence control of harmful plants (lamb's-quarters) | post-emergence control of harmful plants (black nightshade) | post-emergence control of harmful plants (green foxtail; 0.5 or 0.25 kg/ha)

Cc1c(C(=O)c2cnn(C(C)C)c2O)ccc(S(C)(=O)=O)c1C1=NOCC1 [Compound 2.9]
very good: post-emergence action on grasses and weeds (pigweed) | post-emergence action on grasses and weeds (lady's-thumb) | post-emergence action on grasses and weeds (green foxtail; 0.25 or 0.125 kg/ha) | post-emergence action on grasses and weeds (wild oat) | post-emergence action on grasses and weeds (white mustard)
